According to ChEMBL document CHEMBL4616654, “Irpexine, an Isoindolinone Alkaloid Produced by Coculture of Endophytic Fungi, Irpex lacteus and Phaeosphaeria oryzae” (J Nat Prod, 2020):
Activity calls are given as the source filed them.

Legend:
HeLa = test: Cytotoxicity against human HeLa cells at 50 uM; assay type: functional, cell-based
Candida albicans = test: Antifungal activity against Candida albicans at 50 uM; assay type: functional, organism-based
Escherichia coli = test: Antimicrobial activity against Escherichia coli at 50 uM; assay type: functional, organism-based
Bacillus cereus = test: Antimicrobial activity against Bacillus cereus at 50 uM; assay type: functional, organism-based

Measured: Activity

O=c1c2cc3c(CO)cc4cc(O)cc(O)c4c3oc-2cc2cc(O)cc(O)c12
inactive: all assays above

CC(C)=CCc1ccc(O)c(C2c3c(O)cc(C(=O)O)cc3C(=O)N2CCO)c1O (stereo not drawn)
inactive: all assays above
